Bridges are numbered along the chain shown (N, C = ends). Where no end group is shown, it is not given here.
Assays:
4T1 tumor cells = assay: Growth of primary tumors in vivo (number of tumor cells at primary site of injection); design: species or system mice; settings: animals injected with 4T1 tumor cells, FIG. 6A, versus saline
Protocol: FIG. 6A is a bar graph showing the affect of saline, the αV5-3-TAT conjugate peptide (αPKC), or the βIIV5-3-TAT conjugate peptide (βPKC) on the growth rate of primary tumors in vivo.
To determine if the effects observed with the α and βIIPKC peptide inhibitors was due to a decrease in metastasis as opposed to a decrease in primary tumor growth, animals injected with 4T1 tumor cells were treated with saline, the αV5-3-TAT conjugate peptide (αPKC), or the βIIV5-3-TAT conjugate peptide (βPKC) and the number of tumors cells at the primary site of injection were determined.

[1] = Blood cell numbers (white blood cells, lymphocytes, neutrophils) in treated animals; format: in vivo
Text: FIGS. 11A-11B are bar graphs showing the relative serum levels of liver enzymes aspartate transaminase (AST; FIG. 11A) and alanine transaminase (ALT; FIG. 11B) in animals treated with saline or TAT (untreated) or the αV5-3-TAT peptide (aV5-3). FIGS. 11C-11E are bar graphs showing the relative serum levels of white blood cells (FIG. 11C), lymphocytes (FIG. 11D), and neutrophils (FIG. 11E).
Rather, the numbers of white blood cells (FIG. 11C), lymphocytes (FIG. 11D), and neutrophils (FIG. 11E) were all increased in αV5-3 treated animals compared to control (TAT) treated animals.

beta-1 integrin = assay: Beta-1 integrin expression in cells from primary tumors; format: in vivo; settings: data not shown
Text: FIG. 10A is a bar graph showing the relative expression levels of beta 1 (βI) integrin on the surface of tumor cells from animals with metastasis (Mets) or no metastasis (No mets).
To better understand the role of PKC inhibitors in reducing metastasis, tumor cells, cells from primary tumors in animals with metastasis (Mets) and without metastasis (No mets) were isolated and assayed for levels of beta-1 integrin (FIG. 10A). The levels of beta-1 integrin were reduced about 50% in animals with no metastasis.

JC cells = assay: Wound healing (migration) assay, JC; format: cell-based, mouse; settings: peptide 1 uM, re-applied every 2 h for 8 h
Protocol: FIGS. 15A-15D are micrographs showing the efficacy of TAT carrier peptide (TAT; FIG. 15A), αV5-3-TAT peptide (Alpha; FIG. 15B), βIIV5-3 peptide (Beta2; FIG. 15C), and εV1-2 (Epsilon; FIG. 15D) on JC cell migration.
To investigate the role of PKC inhibitors in reducing the migration of tumor cells, in vitro migration assays were performed using MDA-MB-231 breast cancer cells (FIGS. 12A-12D), MCF-7 breast cancer cell (FIGS. 13A-13D), JC cells (FIGS. 15A-15D), and 4T1 cells (FIGS. 16A-16D), in the presence of TAT carrier peptide (TAT), αV5-3-TAT peptide (Alpha), βIIV5-3 peptide (Beta2), or εV1-2 peptide (Epsilon).
Wound healing assay: Human or mouse breast cancer cell lines were grown in 6-well plates until about 90% confluent. Cells were then grown in serum free media overnight, before media was changed to media +1% FBS and peptide PKC inhibitors added (1 uM), at the same time a pipette tip was drawn across the cell layer to create a scrape ‘wound’. PKC inhibitors were re-applied every 2 h for a total of 8 h, before cells were left for a further 12 h and then the scrape was examined under phase contrast microscopy.

αPKC = biological target: T1, αPKC (Mus musculus, UniProt P20444); assay: Translocation of αPKC in tumor cells (immunoblot of cytosol and particulate fractions); format: in vivo; settings: FIG. 5A
T1 construct: endogenous in cells; host or cells: 4T1 murine mammary tumour cells grown as tumours in Balb/c mice
Protocol: FIGS. 5A-5B are bar graphs showing the percentage of translocation of αPKC (FIG. 5A) and βIIPKC (FIG. 5B) […] in tumor cells treated with αV5-3-TAT peptide.
To further characterize inhibition of metastasis using the α and βIIPKC inhibitors, the percentage of translocation of αPKC (FIG. 5A) and βIIPKC (FIG. 5B), […] was measured.

tumor cells [2] = assay: Survival of animals after intravenous administration of tumor cells; format: in vivo, mice; settings: versus saline (PBS)
Protocol: FIG. 9 is a graph showing the percent surviving animals in the time (in days) following intravenous administration of tumor cells. The mice were treated with saline (squares; PBS) or the αV5-3-TAT peptide (circles; peptide).

tumor cells [3] = assay: Adhesion of intravenously injected tumor cells to the lungs (imaging); format: in vivo, mice; settings: for adhesion of tumor cells in the lung, imaging: versus TAT
Protocol: FIG. 7A is a bar graph showing the affect of αV5-3-TAT peptide on the adhesion of tumor cells into the lungs. Animals were treated with TAT carrier peptide (TAT), or αV5-3-TAT peptide (PKC alpha inhibitor), initiated two days before, and continued for 12 days following, injection of tumor cells intravenously;
FIGS. 7B-7C are images of mice two days after treatment as described in FIG. 7A. The mice in FIG. 7B were treated with TAT and the mice in FIG. 7C treated with αV5-3-TAT peptide.
FIGS. 7D-7E are images of mice following five days of treatment as described in FIG. 7A. The mice in FIG. 7D were treated TAT (control) and the mice in FIG. 7E were treated with αV5-3-TAT peptide (PKC a inhibitor).
For example, FIG. 7A is a bar graph showing the affect of αV5-3-TAT peptide on the adhesion of tumor cells into the lungs. In this experiment, animals were treated with TAT carrier peptide (TAT), or αV5-3-TAT peptide (PKC alpha inhibitor), for two days before injection of tumor cells intravenously. Adhesion of tumor cells to the lung was reduced in animals treated with the PKC alpha inhibitor compared to control animals.
FIGS. 7B and 7C are images of representative mice two days after treatment. The mice in FIG. 7B were treated with TAT and the mice in FIG. 7C treated with αV5-3-TAT peptide. […] FIGS. 7D-7E are images of mice following five days of treatment. The mice in FIG. 7D were treated TAT (control) and the mice in FIG. 7E were treated with αV5-3-TAT peptide (PKC a inhibitor).

CXCR4 chemokine receptor = assay: CXCR4 expression on the surface of tumor cells from treated animals; format: in vivo; settings: cells from primary tumors of treated animals, versus TAT, FIG. 10B
Text: FIG. 10B is a bar graph showing the relative expression levels of CXCR4 chemokine receptor on the surface of tumor cells from animals treated with the TAT carrier peptide (TAT) or the αV5-3-TAT peptide (Alpha inhibitor).
Cells from primary tumors in animals treated with the αPKC inhibitor were also isolated and assayed for levels of CXCR4 (FIG. 10B) and levels of matrix metalloproteinase 2 (MMP2) activity (FIG. 10C).

Substance: YGRKKRRQRRR-CC-QLVIAN (YGRKKRRQRRRCCQLVIAN; disulfide 12-13 (inferred)) [αV5-3-TAT]
- reduction in the number of cells at the primary tumor site (4T1 tumor cells): two-fold
- numbers of white blood cells ([1]; compared to control (TAT) treated animals, FIG. 11C): increased
- numbers of lymphocytes ([1]; compared to control (TAT) treated animals, FIG. 11D): increased
- numbers of neutrophils ([1]; compared to control (TAT) treated animals, FIG. 11E): increased
- signs of immunosuppression ([1]; treated animals, FIGS. 11C-11E): no signs of immunosuppression
- beta-1 integrin expression (beta-1 integrin): tended to decrease beta-1 integrin expression but the amount was not statistically significant
- migration of JC cells (JC cells): reduced
- reduction of αPKC translocation (αPKC): about 40%
- survival time (tumor cells [2]): longer survival times
- adhesion of tumor cells in the lung, imaging (tumor cells [3]; five days of treatment, FIGS. 7D-7E): reduced adhesion
- adhesion of tumor cells to the lung (tumor cells [3]; treatment from two days before intravenous injection of tumor cells, FIG. 7A, versus TAT control): reduced
- adhesion of tumor cells in the lung, imaging (tumor cells [3]; two days after treatment, FIGS. 7B-7C): reduced adhesion
- decrease of relative expression levels of CXCR4 chemokine receptor on the surface of tumor cells (CXCR4 chemokine receptor): 4-5 fold

— US20090137493A1, “Inhibition of tumor metastases using protein kinase C (PKC) inhibitors” (priority 2007, published 2009)
